Assay results from patent US20250295570A1, “PEPTIDE HAVING ACTIVITY OF IMPROVING STATE OF SKIN, AND USE THEREOF” (CAREGEN CO., LTD., priority 2021, published 2025).

Key:
Type in all cases: cell-based, mouse
collagen type 1 (Col1a1) = assay: Expression of extracellular matrix constituent factor Col1a1 (RT-PCR) in NIH3T3 cells; conditions: 50 μM or 100 μM peptide, 24 hours, FIG. 2 and FIG. 3
Method: (§1) In this example, the aim was to confirm the effect of the peptide according to an example on improving endogenous skin aging, including improvement of wrinkles and enhancement of elasticity, etc., by evaluating the expression levels of collagen type 1 (Col1a1), fibronectin, or elastin, which are known components of the dermis.
(§2) Specifically, NIH3T3 cells were seeded in a 6-well plate at a density of 3×10^5 cells/well and cultured for 24 hours. The cells were then washed once with serum-free DMEM media, and the culture medium was replaced with serum-free DMEM media. Thereafter, 50 μM or 100 μM of the peptide consisting of the amino acid sequence of SEQ ID NO: 1 was dispensed into the medium, and cultured in a CO2 incubator at 37° C. for 24 hours. The culture was then washed twice with PBS, and RNA was isolated from the culture using easy blue (iNtRON, Korea). Using an RT kit (Enzynomics, Korea), 1 μg of the isolated RNA was reverse transcribed to synthesize the respective cDNA. Polymerase chain reaction (PCR) was then performed using the cDNAs and primers Col1a1, fibronectin, and elastin. Meanwhile, the untreated group was used as the control group, and the group to which TGF-β1 was added (TGF-β1) was used as the positive control group, the nucleotide sequences of the primers used in this example are shown in Table 2 below.

NIH3T3 cells [1] = assay: Inhibition of apoptosis of skin cells induced by ultraviolet rays (SRB survival rate); conditions: 50 μM or 100 μM peptide, 6 J/cm2 ultraviolet rays, 72 hours, FIG. 4
Method: In this example, the aim was to confirm the effect of the peptide according to an example on the inhibition of apoptosis or cell recovery of skin cells induced by ultraviolet rays, by evaluating the change in survival rate of skin cells whose apoptosis was induced by ultraviolet irradiation.
Specifically, NIH3T3 cells were seeded in a […] at a density of 1×10^4 cells/well and cultured for 24 hours. The cells were then washed once with serum-free DMEM media, the culture medium was replaced with serum-free DMEM media, and 50 μM or 100 μM of the peptide consisting of the amino acid sequence of SEQ ID NO: 1 was dispensed to the culture medium. The culture medium dispensed with the peptide was cultured in a CO2 incubator at 37° C. for 1 hour, transferred to an e-tube, mixed with 100 ul of PBS, and dispensed into a well plate. Afterwards, using a UV irradiator (VILBER LOURMAT, France), 6 J/cm2 ultraviolet rays were irradiated to NIH3T3 cells. The PBS in the well plate was then removed, 900 μL of the culture medium in which the peptides were dispensed was added, and the plate was cultured in a CO2 incubator at 37° C. for 72 hours. […] The dried culture was then dissolved in 20 mM Tris buffer solution and the absorbance at 560 nm was measured using a microplate reader (Molecular Devices, USA). […]

NIH3T3 cells [2] = assay: Proliferation of skin cells (SRB staining, survival rate of NIH3T3 cells); conditions: 50 μM or 100 μM peptide, 72 hours, serum-free DMEM, SRB absorbance at 560 nm, FIG. 1
Method: In this example, the aim was to confirm the effect of a peptide according to an example on proliferation of skin cells, by evaluating changes in survival rate of NIH3T3 cells, which are mouse fibroblasts.
Specifically, NIH3T3 cells were seeded in a […] at a density of 5×10^3 cells/well and cultured for 24 hours. The cells were then washed once with serum-free DMEM media, and the culture medium was replaced with serum-free DMEM media. Then, 50 μM or 100 μM of the peptide consisting of the amino acid sequence of SEQ ID NO: 1 was dispensed into the medium, and cultured in a CO2 incubator at 37° C. for 72 hours. The culture was then washed twice with PBS and treated with 4% paraformaldehyde (PFA) solution for 15 minutes to fix the cultured cells. The culture was then washed twice with distilled water, treated with SRB solution for 1 hour to stain the cells, washed with 1% acetic acid solution, and dried. The dried culture was then dissolved in 20 mM Tris buffer solution and the absorbance at 560 nm was measured using a microplate reader (Molecular Devices, USA). In this example, the untreated group was used as the control group, and the group to which insulin-like growth factor was added (IGF) was used as the positive control group.

elastin = assay: Expression of extracellular matrix constituent factor elastin (RT-PCR) in NIH3T3 cells; conditions: 50 μM or 100 μM peptide, 24 hours, FIG. 2 and FIG. 3
Method: as §1, §2

NIH3T3 cells [3] = assay: Antioxidant effect on skin cells induced by ultraviolet rays (reactive oxygen species, DCF-DA, FACS); conditions: 50 μM or 100 μM peptide, 6 J/cm2 ultraviolet rays, 24 hours, FL1 fluorescence by flow cytometry, FIG. 5
Method: In this example, the aim was to confirm the effect of the peptide according to an embodiment on the antioxidant effect of skin cells induced by ultraviolet rays, by evaluating the level of reactive oxygen species in skin cells increased by ultraviolet irradiation.
Specifically, NIH3T3 cells were seeded in a 6-well plate at a density of 5×10^5 cells/well and cultured for 24 hours. The cells were then washed once with serum-free DMEM media, the culture medium was replaced with serum-free DMEM media, and 50 μM or 100 μM of the peptide consisting of the amino acid sequence of SEQ ID NO: 1 was dispensed to the culture medium. The culture medium dispensed with the peptide was cultured in a CO2 incubator at 37° C. for 1 hour, transferred to an e-tube, mixed with 100 ul of PBS, and dispensed into a well plate. Afterwards, using a UV irradiator (VILBER LOURMAT, France), 6 J/cm2 ultraviolet rays were irradiated to NIH3T3 cells. The PBS in the well plate was then removed, 900 μL of the culture medium in which the peptides were dispensed was added, and the plate was cultured in a CO2 incubator at 37° C. for 24 hours. The culture was then treated with DCFG-DA (2′,7′-dichlorofluorescin diacetate), wrapped in foil, and cultured in a CO2 incubator at 37° C. for 30 minutes. […] After washing the centrifuged cells with PBS, FL1 fluorescence values were measured through flow cytometry (FACS, BD, USA). […]

fibronectin = assay: Expression of extracellular matrix constituent factor fibronectin (RT-PCR) in NIH3T3 cells; conditions: 50 μM or 100 μM peptide, 24 hours, FIG. 2 and FIG. 3
Method: as §1, §2

SHNFREEPEMRR (Peptide 1) [SEQ ID NO: 1]
expression of Col1a1 (collagen type 1 (Col1a1)): increased
cell survival rate of fibroblasts reduced by ultraviolet irradiation (NIH3T3 cells [1]): restored
proliferation of fibroblasts (NIH3T3 cells [2]): promoted
expression of elastin (elastin): increased
level of reactive oxygen species in fibroblasts increased by ultraviolet irradiation (NIH3T3 cells [3]): reduced
expression of fibronectin (fibronectin): increased
